Experimental data: publication PMC11628855 (Acta Pharmaceutica Sinica. B, 2024)

Biological target: T1, GacS (12–166)-His (Pseudomonas aeruginosa, UniProt G3XD98)
T1 sequence (G3XD98 12-166): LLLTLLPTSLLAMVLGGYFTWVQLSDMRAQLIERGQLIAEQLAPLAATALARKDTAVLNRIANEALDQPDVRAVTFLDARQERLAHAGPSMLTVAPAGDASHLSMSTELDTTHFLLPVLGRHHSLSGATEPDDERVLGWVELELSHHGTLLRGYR
Assay: microscale thermophoresis
Format: binding

Kd: 12.8 ± 0.68 µM
Compound: CCCCCCNC(=O)CNc1nc2ccc(OC)cc2s1 [SN12, N-Hexyl-2-((6-methoxybenzo[d]thiazol-2-yl)amino)acetamide]
